According to US20250376481A1, “POLYCYCLIC CARBAMOYL PYRIDONE DERIVATIVE, PREPARATION METHOD THEREFOR AND PHARMACEUTICAL COMPOSITION THEREOF” (NANJING AIDEA PHARMACEUTICAL TECHNOLOGY CO., LTD., priority 2021, published 2025):

Columns and labels:
[1] = Oil-water partition coefficient (n-octanol / pH 7.4 phosphate buffer); format: physicochemical; conditions: n-octanol / pH 7.4 phosphate buffer, pH 7.4; read-out: Log D (pH 7.4)
Procedure: • a) To a 5 mL glass bottle was added 1 mL n-octanol and 1 mL pH 7.4 phosphate buffer, respectively. • b) The compound was added to a DMSO solution to prepare a compound stock solution with a concentration of 10 mM, and then 20 μL compound stock solution was added to the mixture solution of n-octanol and phosphate buffer. • c) Shaken at room temperature for 1 hour at a rate of 300/minute. • d) Kept for 30 minutes, and after the solution was completely layered, the upper and lower layers of the solution were taken separately to a 96 well deep well plate, and LC-MS/MS was used for detection via injection. • e) The aliquots of 1-octanol and aqueous solution were diluted consecutively with DMSO to obtain the final sample for LC-MS/MS analysis. Three consecutive dilutions were carried on every 1-octanol phase with covering a concentration range of 2500 fold. Every final aqueous phase was diluted consecutively twice with covering a concentration range of 100 fold. The MS peak areas of these solutions were used to generate log (peak area) based on the log (relative concentration) calibration line.
[formula] • Coct=sample concentration in n-octanol • Caq=sample concentration in pH 7.4 phosphate buffer

[2] = in vivo; set-up: species or system Crab-eating macaques (Macaca fascicularis); conditions: male, cynomolgus monkey, po
Procedure: Crab-eating macaques were used as test animal, the LC-MS/MS was used to determinate the drug concentration at different times in the plasma of crab-eating macaques, who had been administered with compound 1 via gavage (PO). The pharmacokinetic behaviors of compounds of present disclosure in crab-eating macaques were studied and their pharmacokinetic characteristics were evaluated.
Crab-eating macaques (Macaca fascicularis), common grade, male, approximately 2.5-4 years old, 2-5 kg weight, 3 in each group.
Compound 1 and a solid substrate (hydroxypropyl methylcellulose acetate succinate) are dissolved in an organic solvent, and the solvent was removed by heating evaporation, or removed by a spray dryer to obtain compound 1 loaded on the solid substrate.
Compound 1 loaded on the solid substrate, which was obtained according to the above steps, was slowly added to a suitable container with approximately 80% final volume of vehicle while stirring. Stirred until it is visually uniform, and if necessary, the formulation shall be subjected to ultrasonic treatment. Vehicle was added to give the desired concentration. The obtained formulation shall be consecutively stirred until a visually uniform formulation was obtained, and if necessary, the formulation shall be subjected to ultrasonic treatment. The administration concentration with 20 mg/mL API concentration was prepared, and the preparation method for above vehicle was: approximately 30% total volume of purified water was added to an suitable container, and heated up to approximately 80° C.-90° C., the required volume of Tween 80 was added slowly to the container, while stirred until visually uniform. Purified water was added to the final volume. Stirred until a visually uniform solution was obtained.
Crab-eating macaques were fast overnight and given free access to water. […] Feeding was resumed 2 hours after administration.
For crab-eating macaques administered by gavage, 20 μL blood were collected from the veins in hind limb before administration and 0.25, 0.5, 1, 2, 4, 8, 24, 48, 72 and 96 hours after administration, respectively, and placed in EDTA-K2 anticoagulant blood collection tubes, and then the blood would be placed on ice until centrifuged to obtain plasma samples. The plasma samples were centrifuged at 4° C. (3500 rpm, 10 min), and after separation, the plasma samples were transferred to EP tubes and stored at −80° C. for detection.
The level of tested compounds in the plasma of crab eating macaques, who had been orally administrated with different concentrations of drug were determinated: 10 μL macaque blood at each time point after administration was taken, 100 μL methanol containing an internal standard (100 ng/mL) was added, vortex mixed for 1 minute, centrifuged at 4° C. (12000 rmp, 5 minutes), and 1 μL supernatant was taken from the plasma samples for LC-MS/MS analysis.

[3] = biological target: HIV-1 integrase (Human immunodeficiency virus type 1 group M subtype B, UniProt P04585); assay: Integrase activity test (HIV-1 Integrase Assay Kit EZ-1700)
Procedure: A non-radioactive assay method, an integrase assay kit, was used to measure integrase activity quantitatively.
Each component was prepared according to the instructions of the kit; preparation of test sample, 5 mM DMSO solution was prepared for backup, working solution was prepared according to the initial final concentration determined at the time of method establishment, with a 4-fold gradient dilution and 10 concentrations.
• (1) The working solution of sample was prepared according to the initial concentration determinated during the methodology establishment process; • (2) Reagents were prepared according to the methods provided in the kit; • (3) DS DNA coating—blocking—addition of integrase solution—addition of sample—addition of TS DNA—addition of HRP antibody-addition of TMB peroxidase substrate—TMB termination reaction-detection of light absorption value at 450 nm.
The software Graphpad Prism 8.0 was applied and the calculation equation of Log (inhibitor) vs. response variable slope was used to fit the IC50 curve.

For `C[C@H]1N2C(=O)c3c(O)c(=O)c(C(=O)NCc4ccc(F)cc4F)cn3C[C@@H]2OCC12CC2` [Compound 1], the logD [1] was 2.2, the AUC(0-inf) ([2]; 30 mg/kg) was 23100 ± 3840 ng·h/mL and the AUC(0-t) ([2]; 30 mg/kg) was 22900 ± 3810 ng·h/mL. It also gave a Cmax ([2]; 30 mg/kg) of 1800 ± 534 ng/mL, an MRT ([2]; 30 mg/kg) of 14.1 ± 2.68 h and a Tmax ([2]; 30 mg/kg) of 4 h. For the same compound, the half-life ([2]; 30 mg/kg) was 15.7 ± 5.49 h, the AUC(0-inf) ([2]; 100 mg/kg) was 164000 ng·h/mL and the AUC(0-t) ([2]; 100 mg/kg) was 140000 ± 44200 ng·h/mL. It also gave a Cmax ([2]; 100 mg/kg) of 4040 ± 871 ng/mL, an MRT ([2]; 100 mg/kg) of 26.9 h and a Tmax ([2]; 100 mg/kg) of 18.7 ± 25.4 h. For the same compound, the half-life ([2]; 100 mg/kg) was 19.8 ± 4.78 h and the IC50 [3] was 9.19 nM.
